“Also recorded” adds a separate entry of the source. Where two headings read alike, the source gives them in different places.
Experiments:
[1] = system: beagle dogs; details: continuous edaravone infusion; cited from earlier work
[2] = Vitamin B6 monitoring (plasma pyridoxal 5'-phosphate) within the clinical study; format: in vivo, human; set-up: Plasma vitamin B6 (pyridoxal 5'-phosphate), Change from baseline, Median / Plasma vitamin B6 (pyridoxal 5'-phosphate), Change from baseline, Mean: unit not given here; details: for Plasma vitamin B6 (pyridoxal 5'-phosphate), Observed value, Median / Plasma vitamin B6 (pyridoxal 5'-phosphate), Observed value, Mean: no unit in table
Description: Therefore, potential neurotoxicity by NCS assessment and by PLP levels during the conduct of the current study was monitored.
Plasmatic concentration of vitamin B6 was monitored at each visit. The normal range of plasma concentration of vitamin B6 in humans (measured as pyridoxal 5'-phosphate) is […], values below this range are considered 'low' and values above, 'high'. In the inclusion visit at time zero patients were classified as 'normal', 'low' or 'high' and the change of this classification was assessed at each visit.
The fact that most of the patients show no change in the classification as 'normal', 'low', or 'high' during the study is a sign of low neurotoxicity of the product. This is the case for patient showing no shift from baseline, for instance 'Normal to Normal' patients.

[3] = system: monkeys; details: continuous i.v. infusion of 1000 mg/kg/day, 28 days; cited from earlier work
[4] = system: dogs; details: cited from earlier work
[5] = system: patients with Amyotrophic Lateral Sclerosis (ALS); experiment: Nerve Conduction Study (NCS) within the clinical study; format: in vivo, human; details: for Sural-Radial Amp Ratio (SRAR), Shift from Baseline: Low to Low / Sural-Radial Amp Ratio (SRAR), Shift from Baseline: Low to Normal / Sural-Radial Amp Ratio (SRAR), Shift from Baseline: Normal to Low / Sural-Radial Amp Ratio (SRAR), Shift from Baseline: Normal to Normal / Sural nerve - SNAP Amp, Shift from Baseline: Low to Low / Sural nerve - SNAP Amp, Shift from Baseline: Low to Normal / Sural nerve - SNAP Amp, Shift from Baseline: Normal to Low / Sural nerve - SNAP Amp, Shift from Baseline: Normal to Normal: blinded pool edaravone/placebo 2:1
Description: A centralized evaluation was performed by neurophysiologists to avoid any bias between sites and to guarantee the safety of patients. The NCS was initially performed for the first 60 enrolled patients at screening, and on weeks 4, 12, and 24. […] NCS main criteria for neuropathy are decreased sural nerve SNAP (sensory nerve action potential) amplitudes or decreased sural/radial nerve amplitude ratio (SRAR), although all data is assessed globally. […] The fact that most of the patients show no change in these values, i.e., that they start with 'normal' and remain 'normal' is a sign of lack of neurotoxicity of the treatment. The appearance of neuropathy may also occur at the normal population for other causes such as diabetes or alcoholism, totally unrelated to any treatment. The NCS protocol evaluates the sensory nerve action potential (SNAP) amplitudes using standard ring-electrodes and predefined sites for both stimulus (antidromic) and recording sites, including standardized distances that also apply for the inter-electrode distances. […] These measures eliminate any unwanted variation due to instrumentational differences. NCS data is evaluated independently at a single specialized unit taking into account reference values provided by participating sites and using age-adjusted reference values. Recordings can be performed on a standard type of electromyograph (EMG) equipment (e.g., Natus Nicolet EDX, Nicolet Viking, Dantec Keypoint, TECA Synergy, Cadwell). The following steps were followed to perform the NCS assessment: • Recording and documentation of temperature at start of the assessment at hand and foot respectively. Limb temperature should be ≥ 31°C, otherwise warming may be considered or alternatively accepted correction factor for decreased temperature could be done. • Unilateral recording of sensory responses of the following nerves (hand, followed by lower limb) was carried out: • ∘ Median nerve (hand, dig II). The distance from the stimulus and recording electrode should be recorded. • ∘ Ulnar nerve (hand, dig V). The distance from the stimulus and recording electrode should be recorded. • ∘ Radial nerve (back of the hand). A standardized distance stimulus-recording electrode of 12 cm should be used. • ∘ Sural nerve (leg, lateral malleolus). A standardized distance stimulus-recording electrode of 12 cm should be used. • Recording of sensory responses were carried out using standardized sides (left or right) for stimulation (assessments were performed on one side only, the same side for each subject was used throughout the study). Electrodes were placed at an interelectrode distance of 2 cm. […] For each nerve, sensory nerve action potential (SNAP) amplitudes were evaluated. Antidromic stimulus were provided to the subjects. Required quality of the NCS included: optimization of the recordings, ensuring flat base line without a slope, omitting stimulus artifacts and background noise, so that markers could be placed appropriately, and true SNAP amplitude values could be obtained accurately. The NCS Ranges of normality considered for this clinical study for SNAP Amp (sensory nerve action potential amplitude) and SCV (sensory conduction velocity) are shown below: Table 4 Normal values for the sensory nerve action potential amplitude (SNAP Amp) for the sural nerve are values higher than 8 µV for subjects with less than 40 years of age, higher than 5 µV for subjects with 40-60 years of age, and higher than 2 µV for subjects with more than 60 years of age. Normal values for the sural-radial Amp ratio (SRAR) are values higher than 0.45 for subjects with 18-39 years, higher than 0.32 for subjects with 40-59 years and higher than 0.19 for subjects with 60 or more years of age.

[6] = system: dogs; details: continuous i.v. infusion, cited from earlier work
[7] = system: patients with Amyotrophic Lateral Sclerosis (ALS); experiment: Clinical assessment of neuropathy in the clinical study of edaravone granules for oral solution; format: in vivo, human
Description: A clinical study was started to investigate the efficacy and safety of 100 mg of edaravone granules for oral solution (composition shown in table 1 above) in 300 patients with Amyotrophic Lateral Sclerosis (ALS) following treatment for 48 or 72 weeks. The first 100 subjects enrolled will have either 72 weeks of follow-up or have reached an intercurrent event, and the rest (about two thirds of enrolled patients) will be followed up to 48 weeks (or have reached an intercurrent event).
During the treatment, the participants are randomly assigned to receive a daily dose of 100 mg of either edaravone (composition shown in table 1 above) or placebo at a ratio of 2:1 (i.e., two thirds of the patients receive the edaravone formulation and one third receives placebo) for 72 weeks. The study medication, both the placebo and edaravone, is available in single-dose sachets, which must be dissolved in water and taken orally once daily in the morning after a lapse of at least 2 hours from the last meal consumption.
Several authors and regulatory agencies (see for instance EMA/CHMP/290284/2019, page 134) consider that monitoring of the levels of pyridoxal 5'-phosphate (PLP), the active form of vitamin B6, and testing of motor or sensory nerve conduction, such as Nerve Conduction Studies (NCS) described below, should be carried out in order to allow for early detection of neurotoxicity. In addition to this, clinical assessment of neuropathy of patients was carried out by neurologist.
Moreover, the percentage of neuropathy found in patients suffering from other chronic diseases such as diabetes, HIV infection or alcoholism is higher than 20 %. When the blinding of the study is broken, the specific percentages of neuropathy could be linked to the edaravone and placebo arms.

[8] = Visit 1 (Baseline, before treatment), N=163
[9] = Visit 2 (Week 4), N=159, blinded pool edaravone/placebo 2:1
[10] = Visit 3 (Week 12), n=109, blinded pool edaravone/placebo 2:1
[11] = Visit 4 (Week 24), n=59, blinded pool edaravone/placebo 2:1
[12] = Visit 5 (Week 36), n=12, blinded pool edaravone/placebo 2:1

SMILES: CC1=NN(c2ccccc2)C(=O)C1 [edaravone, 5-methyl-2-phenyl-4H-pyrazol-3-one]
- plasma levels of vitamin B6 [1]: decreasing plasma levels of vitamin B6
- Plasma vitamin B6 (pyridoxal 5'-phosphate), Observed value, Median ([2]; Screening (before treatment), n=182): 41.50
- Plasma vitamin B6 (pyridoxal 5'-phosphate), Observed value, Mean ([2]; Screening (before treatment), n=182, normal range 12-128 ng/L): 74.90
- Plasma vitamin B6 (pyridoxal 5'-phosphate), Observed value, Mean [2, 8]: 76.6
- Plasma vitamin B6 (pyridoxal 5'-phosphate), Observed value, Median [2, 8]: 41.0
- Plasma vitamin B6 (pyridoxal 5'-phosphate), Change from baseline, Mean [2, 9]: 0.5
- Plasma vitamin B6 (pyridoxal 5'-phosphate), Change from baseline, Median [2, 9]: 2.0
- Plasma vitamin B6 (pyridoxal 5'-phosphate), Observed value, Mean [2, 9]: 77.10
- Plasma vitamin B6 (pyridoxal 5'-phosphate), Observed value, Median [2, 9]: 43.0
- Plasma vitamin B6 (pyridoxal 5'-phosphate), Change from baseline, Mean [2, 10]: -6.8
- Plasma vitamin B6 (pyridoxal 5'-phosphate), Change from baseline, Median [2, 10]: 2.0
- Plasma vitamin B6 (pyridoxal 5'-phosphate), Observed value, Mean [2, 10]: 69.80
- Plasma vitamin B6 (pyridoxal 5'-phosphate), Observed value, Median [2, 10]: 43.0
- Plasma vitamin B6 (pyridoxal 5'-phosphate), Change from baseline, Mean [2, 11]: -0.7
- Plasma vitamin B6 (pyridoxal 5'-phosphate), Change from baseline, Median [2, 11]: 4.0
- Plasma vitamin B6 (pyridoxal 5'-phosphate), Observed value, Mean [2, 11]: 75.9
- Plasma vitamin B6 (pyridoxal 5'-phosphate), Observed value, Median [2, 11]: 45.0
- Plasma vitamin B6 (pyridoxal 5'-phosphate), Change from baseline, Mean [2, 12]: 19.2
- Plasma vitamin B6 (pyridoxal 5'-phosphate), Change from baseline, Median [2, 12]: 33.5
- Plasma vitamin B6 (pyridoxal 5'-phosphate), Observed value, Mean [2, 12]: 95.8
- Plasma vitamin B6 (pyridoxal 5'-phosphate), Observed value, Median [2, 12]: 74.5
- plasmatic concentration of vitamin B6 versus baseline ([2]; monitored at each visit): do not show a decrease; also recorded: not reduced from baseline
- histological correlate in the central and peripheral nervous system [3]: minimal to severe nerve fibre degenerations
- motor deficits, time of appearance [3]: third and fourth week
- levels of pyridoxal 5'-phosphate (PLP) ([4]; continuous i.v. infusions of 1000 mg/kg/day): reduced
- onset of the axonal nerve fibre degenerations ([4]; continuously infused i.v. dose 120 mg/kg/day): 15 days
- onset of the axonal nerve fibre degenerations ([4]; continuously infused i.v. dose 300 mg/kg/day): 11 days
- Sural-Radial Amp Ratio (SRAR), Shift from Baseline: Low to Low ([5]; Visit 2 (Week 4), N=165): 9 (5.5) n (%)
- Sural-Radial Amp Ratio (SRAR), Shift from Baseline: Low to Normal ([5]; Visit 2 (Week 4), N=165): 8 (4.8) n (%)
- Sural-Radial Amp Ratio (SRAR), Shift from Baseline: Normal to Low ([5]; Visit 2 (Week 4), N=165): 6 (3.6) n (%)
- Sural-Radial Amp Ratio (SRAR), Shift from Baseline: Normal to Normal ([5]; Visit 2 (Week 4), N=165): 142 (86.1) n (%)
- Sural nerve - SNAP Amp, Shift from Baseline: Low to Low ([5]; Visit 2 (Week 4), N=167): 3 (1.8) n (%)
- Sural nerve - SNAP Amp, Shift from Baseline: Low to Normal ([5]; Visit 2 (Week 4), N=167): 0 (0.0) n (%)
- Sural nerve - SNAP Amp, Shift from Baseline: Normal to Low ([5]; Visit 2 (Week 4), N=167): 2 (1.2) n (%)
- Sural nerve - SNAP Amp, Shift from Baseline: Normal to Normal ([5]; Visit 2 (Week 4), N=167): 162 (97.0) n (%)
- Sural-Radial Amp Ratio (SRAR), Shift from Baseline: Low to Low ([5]; Visit 3 (Week 12), N=112): 5 (4.5) n (%)
- Sural-Radial Amp Ratio (SRAR), Shift from Baseline: Low to Normal ([5]; Visit 3 (Week 12), N=112): 4 (3.6) n (%)
- Sural-Radial Amp Ratio (SRAR), Shift from Baseline: Normal to Low ([5]; Visit 3 (Week 12), N=112): 10 (8.9) n (%)
- Sural-Radial Amp Ratio (SRAR), Shift from Baseline: Normal to Normal ([5]; Visit 3 (Week 12), N=112): 93 (83.0) n (%)
- Sural nerve - SNAP Amp, Shift from Baseline: Low to Low ([5]; Visit 3 (Week 12), N=115): 2 (1.7) n (%)
- Sural nerve - SNAP Amp, Shift from Baseline: Low to Normal ([5]; Visit 3 (Week 12), N=115): 0 (0.0) n (%)
- Sural nerve - SNAP Amp, Shift from Baseline: Normal to Low ([5]; Visit 3 (Week 12), N=115): 3 (2.6) n (%)
- Sural nerve - SNAP Amp, Shift from Baseline: Normal to Normal ([5]; Visit 3 (Week 12), N=115): 110 (95.7) n (%)
- Sural-Radial Amp Ratio (SRAR), Shift from Baseline: Low to Low ([5]; Visit 4 (Week 24), N=59): 4 (6.8) n (%)
- Sural-Radial Amp Ratio (SRAR), Shift from Baseline: Low to Normal ([5]; Visit 4 (Week 24), N=59): 1 (1.7) n (%)
- Sural-Radial Amp Ratio (SRAR), Shift from Baseline: Normal to Low ([5]; Visit 4 (Week 24), N=59): 4 (6.8) n (%)
- Sural-Radial Amp Ratio (SRAR), Shift from Baseline: Normal to Normal ([5]; Visit 4 (Week 24), N=59): 50 (84.7) n (%)
- Sural nerve - SNAP Amp, Shift from Baseline: Low to Low ([5]; Visit 4 (Week 24), N=60): 0 (0.0) n (%)
- Sural nerve - SNAP Amp, Shift from Baseline: Low to Normal ([5]; Visit 4 (Week 24), N=60): 0 (0.0) n (%)
- Sural nerve - SNAP Amp, Shift from Baseline: Normal to Low ([5]; Visit 4 (Week 24), N=60): 3 (5.0) n (%)
- Sural nerve - SNAP Amp, Shift from Baseline: Normal to Normal ([5]; Visit 4 (Week 24), N=60): 57 (95.0) n (%)
- main criteria for neuropathy: decreased sural nerve SNAP amplitudes or decreased sural/radial nerve amplitude ratio (SRAR) ([5]; at baseline and at different times during the study): not found in most of the patients
- onset of dose-dependent impaired motor function ([6]; 300 mg/kg/day): 13 days
- onset of dose-dependent impaired motor function ([6]; ≥60 mg/kg/day): 18 days of treatment
- finding associated with the loss of motor function [6]: axonal degeneration of peripheral nerves fibres and in the CNS
- patients showing clinical signs of neuropathy ([7]; 313 randomized patients, blinded pool edaravone/placebo 2:1, 100 mg oral once daily, treated 6 months to one year and 7 months): 2.2%
- percentage of neuropathy in patients compared with normal population ([7]; clinical trial with edaravone, normal population about 8 %): not higher than the percentage found in the normal population
- number of patients showing clinical signs of neuropathy ([7]; out of 313 randomized patients, blinded pool edaravone/placebo 2:1, treated 6 months to one year and 7 months): 7
